Reference: US20240252508A1, “Novel glucose uptake inhibitors for use in the treatment of cancer” (NOVELYEAST BV, priority 2021, published 2024)
Like-named read-outs stand apart in the source and are kept apart here.

Columns and labels:
[1] = tested on: tps1Δ cells; assay: Glu6P and Fru1,6bisP levels after glucose addition to tps1Δ cells; format: cell-based, S. cerevisiae
Protocol: For measuring metabolite levels, cells were typically grown in Complete Synthetic medium. […] However, when comparing the effect of Warbicins on metabolite profiles of wild type and tps1Δ strains (FIG. 2f-k), cells were grown on 2% galactose. When grown to exponential phase, cells were harvested by centrifugation and washed twice with ice-cold 25 mM 2-(N-Morpholino)ethanesulfonic acid (MES) buffer, pH 6. Cells were suspended in Complete Synthetic medium without sugar at a concentration of 75 mg (wet weight)/mL followed by a temperature equilibration at 30° C. in a shaking water bath for 30 min. Depending on the experiment, a final concentration of 2.5 mM, 7.5 mM or 10 mM glucose was added to the cell suspension. Compounds were added 10 min prior to glucose addition. […]
Through endpoint measurement of the absorbance of NADH or NADPH at 340 nm, metabolite concentrations were calculated by applying Lambert's Law. Different metabolites were measured through the use of coupled enzymatic reactions. […] Depending on the measured metabolite, different co-factors and auxiliary enzymes were added. For measuring glucose-6-phosphate, 0.8 mg/ml NADP^+ was added to the assay buffer after which the baseline absorbance was measured. […] After stabilization of the OD340 spectra, ATP concentrations were measured by additionally adding 10 mM MgCl2 and 0.5 mM glucose to the assay buffer. […]

[2] = tested on: A549 lung adenocarcinoma cells; assay: A549 cell proliferation / growth inhibition; format: cell-based, human
How it was run: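 A549 growth screened in RPMI with 1 mM glucose, compounds at 50 μM; cell number from counts of Hoechst-stained nuclei after 3 days. Growth curves also followed by IncuCyte phase-contrast confluency over 3–5 days (1000–1500 cells/well), DMSO ≤0.1%, ≥4 technical repeats.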

[3] = tested on: wild type cells; assay: Zero-trans glucose uptake in wild type yeast cells; format: cell-based, S. cerevisiae; settings: for Ki: Dixon plot analysis
Protocol: Zero-trans uptake of radioactively labeled [U-^14C]glucose, [U-^14C]fructose or [U-^14C]galactose by S. cerevisiae cells was determined in accordance with previous studies^44,66. Cells were grown on different carbon sources depending on the experiment. For measuring glucose uptake activity in the tps1Δ and tps1Δ hxtA strains (FIG. 1b,c), cells were grown on YP medium containing 3% glycerol (measurement of 10s). Typically, for compound characterization and kinetic studies in wild type and tps1Δ strains, cells were (pre)grown on Complete Synthetic medium supplemented with 2% galactose (measurement of 10s). In the experiments on the influence of hexokinase activity on the sugar uptake rate, the measurement duration was shortened to 5s and cells were always grown on YP medium containing 3% glycerol and 2% ethanol. After harvesting, cells were washed twice with ice-cold 25 mM MES-buffer pH 6, and resuspended in their respective medium without sugar to a final concentration of 45 mg (wet weight)/mL. The amount of added tracer was estimated to give a response close to at least 1000 counts per min in order to adequately counter background noise. Cells were first preincubated for 10 min at 30° C. with the compound to acclimate the cells to the temperature and to allow adequate interaction with the compound prior to uptake. Next, hexose sugar was mixed with the cell suspension, which was then incubated for 5 or 10 s, depending on the experiment, after which the cells were rapidly filtered over a glass microfiber filter (Whatman GF/C) and washed three times with ice-cold dH2O. The loaded filter was transferred to a scintillation vial containing 3 mL liquid scintillation cocktail (Ultima-Flo M, Perkin Elmer) and counted using the Hidex 300 SL. Three blank measurements per strain were typically included to account for background signal, for which the cells were first quenched before adding the radioactive label.

Cc1nc(Sc2nnc3n2CCCCC3)c2c(-c3cccs3)csc2n1 [WBC-A]
Glu6P and Fru1,6bisP hyperaccumulation after addition of 2.5 mM glucose [1]: concentration-dependent gradual drop in Glu6P and a more precipitous drop in Fru1,6bisP | Potency in reducing maximal growth rate of A549 cells ([2]; 1 mM glucose, 6.25-50 μM): intermediate potency | Proliferation of A549 cells in RPMI medium with 1 mM or 5 mM glucose ([2]; 12.5-50 μM WBC-A): dose-dependent inhibition of growth | Ki [3]: 9.04 µM | Ki ([3]; printed K′, read-out: K′i, glucose uptake, wild type cells): 36.6 µM | Type of inhibition of glucose uptake, wild type cells ([3]; Lineweaver-Burk plot analysis): mixed type
